The source of these data is publication PMC10485906, “Development of a Dihydroquinoline–Pyrazoline GluN2C/2D-Selective Negative Allosteric Modulator of the N-Methyl-D-aspartate Receptor” (ACS Chemical Neuroscience, 2023).

Like-named read-outs stand apart in the source and are kept apart here.

The target of assay [1] is T1, GluN1/GluN2D (Rattus norvegicus, UniProt Q62645). More on the design: GluN2B (NM_012574.1), GluN2C (NM_012575.3), and GluN2D (NM_022797.2) were provided by; expressed in transfected cells; host or cells: Xenopus laevis oocytes (cRNA injection). As to conditions: cited from earlier work.
Assay [2] addresses T1, GluN1/GluN2D. Nature of the assay: Whole-cell voltage-clamp recordings, HEK cells, GluN1/GluN2D (agonist dependence). The assay is classed as cell-based. From the text:
(§1) We previously described the actions of the GluN2C/GluN2D-preferring negative allosteric modulator DQP-1105 as dependent on glutamate (but not glycine) binding, in that DQP-1105 affinity increases after GluN1/GluN2D NMDARs bind glutamate.[32] […] The concentration-dependent relaxation is indicative of an agonist-induced increase in potency that leads to re-equilibration of the inhibitor after agonist binding induces an increase in inhibitor affinity. We investigated the glutamate dependence of compound 2i (GluN1/GluN2D, Figure 4; GluN1/GluN2C, Figure S2), DQP-1105 (Figure S1), and compound (S)-2a (DQP-69;[33]Figure S3) using the same protocols.
(§2) We preincubated cells with glycine and the inhibitor 2i (DQP-997-74) and compared inhibitor potency during the peak and steady-state current responses to glutamate application. […] To investigate the time course of 2i inhibition, we fitted the relaxation of the current response with a single exponential function. If the current response time course reflects 2i binding, then the reciprocal of τinhibition should be linearly related to its concentration, with the slope equal to kON and intercept equal to kOFF. […] The deactivation of GluN1/GluN2D receptors (5.3 ± 0.2 s) was slowed by the presence of compound 2i when applied at concentrations of 0.1 μM (7.3 ± 0.3 s; p = 0.017) and 0.3 μM (10.5 ± 1.0 s; p = 0.002) but not at 0.03 μM (5.6 ± 0.3 s; p = 0.518; Figure 4E). […] This phenomenon was previously discovered for QNZ-46, a glutamate-dependent GluN2C/2D-selective inhibitor with a different structural core.[42] As proposed in that study, the prolonged deactivation may indicate that 2i slows a conformational change necessary for glutamate unbinding or 2i may need to unbind before glutamate can unbind.
(§3) In addition, we evaluated how glutamate dependence affects inhibition of responses to brief agonist applications similar to phasic glutamate release that occurs at synapses. To do so, we preincubated cells expressing GluN1/GluN2D receptors with the inhibitor 2i and then applied trains of five brief pulses of NMDA (which dissociates more rapidly than glutamate) and glycine from a pressurized micropipette to mimic repetitive synaptic transmission (Figure 4F). We measured the peak amplitude and compared the concentration–response curves for the inhibition of the first and last response (Figure 4G). The initial train of pulses in the absence of drug controls for systematic errors such as internalization of receptors.
(§4) To further evaluate whether 2i followed the law of mass action, we coapplied different concentrations of 2i with glutamate during the steady-state glutamate and glycine responses of GluN1/GluN2D receptors expressed in HEK cells (Figure 4H). […] We also fitted the onset and offset time course of the inhibition produced by compound 2i with a single exponential function (Figure 4J).
(§5) HEK293 cells (HEK, ATCC CRL-1573) were plated on glass coverslips pretreated with 0.1 mg/mL poly-D-lysine and cultured in Dulbecco’s modified Eagle medium (DMEM) plus Glutamax (GIBCO 10569-10) supplemented with 10% fetal bovine serum, 10 U/mL of penicillin, and 10 μg/mL of streptomycin at 37 °C and 5% CO2. The cells were transiently transfected with cDNA encoding rat GluN1, GluN2D, and eGFP at a ratio of 1:1:5 by using the calcium phosphate precipitation method.[48] After 24–48 h following the transfection, the cells were perfused with external recording solution that contained (in mM) 3 KCl, 150 NaCl, 0.01 EDTA, 1.0 CaCl2, 10 HEPES, and 22 D-mannitol (the pH was adjusted to 7.4 with NaOH). The patch electrodes (resistance 3–5 MΩ) were prepared from thin-walled glass micropipettes (TW150F-4, World Precision Instruments, Sarasota, FL) by a dual-stage glass micropipette puller (PC-10, Narishige, Tokyo, Japan) and filled with internal solution containing (in mM) 110 D-gluconate, 110 CsOH, 30 CsCl, 5 HEPES, 4 NaCl, 0.5 CaCl2, 2 MgCl2, 5 BAPTA, 2 NaATP, and 0.3 NaGTP. […]

Assay [3] has as its target GluN1/GluN2D (Rattus norvegicus, UniProt P35439+Q62645). The description is as above. Type of assay: cell-based.
Description: as §1, §2, §3, §4, §5

Assay [4] concerns Tsc1^± mice. On the set-up: method as in PMID 25081057. Particulars: 28 mg/kg IP; heterozygote Tsc1^± mice; cited from earlier work.

GluN1/GluN2D (Rattus norvegicus, UniProt P35439+Q62645), sequence (Q62645 28-1323, other chains not shown): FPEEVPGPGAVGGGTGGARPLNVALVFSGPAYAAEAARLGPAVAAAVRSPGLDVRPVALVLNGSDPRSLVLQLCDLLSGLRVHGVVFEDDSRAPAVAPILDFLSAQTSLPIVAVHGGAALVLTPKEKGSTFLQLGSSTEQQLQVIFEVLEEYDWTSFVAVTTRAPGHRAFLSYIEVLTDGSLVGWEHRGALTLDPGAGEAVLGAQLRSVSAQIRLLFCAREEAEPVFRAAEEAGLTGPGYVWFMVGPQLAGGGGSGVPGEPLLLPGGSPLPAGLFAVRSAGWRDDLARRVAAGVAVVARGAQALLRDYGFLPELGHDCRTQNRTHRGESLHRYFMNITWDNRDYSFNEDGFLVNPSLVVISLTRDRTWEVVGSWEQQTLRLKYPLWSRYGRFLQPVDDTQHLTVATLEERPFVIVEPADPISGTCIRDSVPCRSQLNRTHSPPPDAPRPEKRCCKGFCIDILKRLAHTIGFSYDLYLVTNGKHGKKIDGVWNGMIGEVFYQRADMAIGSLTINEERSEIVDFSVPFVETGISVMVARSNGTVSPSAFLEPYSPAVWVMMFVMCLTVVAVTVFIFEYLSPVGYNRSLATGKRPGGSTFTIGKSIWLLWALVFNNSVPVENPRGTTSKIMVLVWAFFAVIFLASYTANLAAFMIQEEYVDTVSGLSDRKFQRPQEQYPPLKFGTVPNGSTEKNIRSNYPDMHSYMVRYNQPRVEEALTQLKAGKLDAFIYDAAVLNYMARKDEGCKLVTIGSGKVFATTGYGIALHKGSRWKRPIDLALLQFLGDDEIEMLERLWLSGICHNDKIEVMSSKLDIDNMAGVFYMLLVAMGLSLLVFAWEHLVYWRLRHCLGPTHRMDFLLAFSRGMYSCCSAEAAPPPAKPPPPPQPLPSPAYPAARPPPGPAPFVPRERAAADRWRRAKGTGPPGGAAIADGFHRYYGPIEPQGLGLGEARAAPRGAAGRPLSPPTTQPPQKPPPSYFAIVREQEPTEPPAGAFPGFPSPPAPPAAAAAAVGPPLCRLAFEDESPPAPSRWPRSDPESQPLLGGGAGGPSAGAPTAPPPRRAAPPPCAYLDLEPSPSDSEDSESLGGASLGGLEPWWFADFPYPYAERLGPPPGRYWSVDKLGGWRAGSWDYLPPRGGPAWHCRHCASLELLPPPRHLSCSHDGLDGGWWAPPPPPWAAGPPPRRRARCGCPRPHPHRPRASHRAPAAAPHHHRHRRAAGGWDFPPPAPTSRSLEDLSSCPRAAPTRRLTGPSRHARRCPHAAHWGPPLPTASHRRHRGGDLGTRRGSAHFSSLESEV
T1 sequence (Q62645 28-1323, other chains not shown): as above

Regarding `Cc1ccc2[nH]c(=O)c(C3=NN(C(=O)CCC(=O)O)C(c4ccc(Br)cc4)C3)c(-c3ccccc3)c2c1` (centres unmarked) [compound 1, reference compound], the IC50 in assay [1] is 2700 nM; in assay [3] (fifth of 5 brief NMDA (500 μM)/glycine (250 μM) pulses at 1 s intervals, read-out: IC50 pulse 5 (95% CI)), 1600 nM; in assay [3] (first of 5 brief NMDA (500 μM)/glycine (250 μM) pulses at 1 s intervals, read-out: IC50 pulse 1 (95% CI)) it was 4900 nM; in assay [3] (peak current response to glutamate, inhibitor preapplied, read-out: IC50 peak (95% CI)), 1400 nM; in assay [3] (steady-state current response to glutamate, inhibitor preapplied, read-out: IC50 steady-state (95% CI)) it was 720 nM. In addition, the “τdeactivation following glutamate removal” value is listed as 6.6 ± 0.3 s in assay [2] (0.3 μM compound, mean ± SEM); 6.9 ± 0.4 s in assay [2] (1 μM compound, mean ± SEM); 8.0 ± 0.4 s in assay [2] (3 μM compound, mean ± SEM). Besides, the “fold-change in IC50 for the peak and steady-state current responses” value in assay [2] (mean ± SEM, compared by ANOVA) worked out at 2.1 ± 0.2. For the same compound, the “IC50 fold higher during peak compared to steady-state” value in assay [2] (ratio of IC50 values) was found to be 1.9 fold. Besides, the “IC50 fold higher at first pulse compared to fifth pulse” value in assay [2] (trains of brief agonist applications) is given as 3 fold. This compound also displayed a koff in assay [3] (HEK293, inhibitor preapplied, linear regression of 1/τinhibition vs concentration) of 0.19 s⁻¹. In addition, in assay [3] (inhibitor preapplied, from kON and kOFF, supplement), the Kd was found to be 400 nM. Further, the “effect on seizure burden” value in assay [4] is recorded as “diminished seizure burden”.
